Patent US9296746B2, “Heterocyclic compound” (TAKEDA PHARMACEUTICAL COMPANY LIMITED, priority 2012, dated 2016)

Columns and labels:
human CH24H = target: T1, human CH24H (Homo sapiens, UniProt Q9Y6A2); assay: Measurement of CH24H inhibitory activity (24-HC produced from [14C] cholesterol by human CH24H lysate); format: biochemical; conditions: test compound 1 μM, [14C] cholesterol 15 μM, 37° C., 5 hr, read-out: Inhibitory Rate (%) in 1 μM
T1 construct: Using Full-Length Mammalian Gene Collection No. 4819975 (Invitrogen) as a template; made in house; host or cells: FreeStyle 293-F cells (transient transfection); cell lysate supernatant, not purified
Procedure: The expression of human CH24H was performed using FreeStyle 293 Expression System (Invitrogen). According to the manual attached to FreeStyle 293 Expression System and using the plasmid DNA for human CH24H expression (pcDNA3.1(+)/hCH24H) constructed in Experimental Example 1, a transient expression using FreeStyle 293-F cell was performed. After transfection, the cells were cultured at 37° C., 8% CO2 with shaking at 125 rpm for 2 days. The cells were collected by centrifugation, and suspended in a suspension buffer (100 mM potassium phosphate (pH 7.4), 0.1 mM EDTA, 1 mM DTT, 20% Glycerol). The suspended product was disrupted by a polytron homogenizer (manufactured by Kinematica), and centrifuged at 9000×g for 10 min, and the supernatant was collected. The collected supernatant was cryopreserved (−80° C.) as a human CH24H lysate standard product.
For the measurement of CH24H inhibitory activity, using the human CH24H lysate prepared in Experimental Example 2, the amount of 24-HC produced from cholesterol by catalytic activity of CH24H was measured in the presence of a test compound, and compared with that measured in the absence of the test compound. That is, a test compound solution at various concentrations was mixed with a reaction buffer (50 mM potassium phosphate containing 0.1% BSA and Complete, EDTA-free, pH 7.4) and human CH24H lysate. Then, [^14C] cholesterol (53 mCi/mmol specific activity, 15 μM) was added, and CH24H reaction was performed at 37° C. for 5 hr. After completion of the reaction, a quenching solution consisting of chloroform/methanol/distilled water (2:2:1 v/v) was added, and the resulting 24-HC was extracted by shaking. The extract was applied to silica gel thin layer chromatography (ethyl acetate:toluene=4:6), and the obtained ^14C-24HC fraction was measured with BAS2500 (Fujifilm Corporation).
The inhibitory rate (%) was calculated from the ratio of radioactivity in the presence of a test compound relative to the radioactivity in the absence of the test compound.

[1] = test system: APP transgenic mouse (Tg2576); assay: Novel object recognition test using an APP transgenic mouse (Tg2576); format: in vivo, Tg2576 mice; conditions: 3 mg/mL suspension at 10 mL/kg orally once a day for 6 weeks
Procedure: Animals used were 6-week-old Tg2576 mice and their wild-type mice (10 mice/group). A test compound was suspended in a 0.5% aqueous methyl cellulose [133-14255 WAKO] solution (3 mg/mL). The body weight of the mice was measured, and the solution was forcibly administered orally and repeatedly at 10 mL/kg once a day for 6 weeks. Then, a novel object recognition test was performed as follows. On the day before acquisition trial, the mice kept in the same cage were put in an observation box in which the illuminance was set to 300 lx, and habituated for 30 min. After the habituation, a compound was orally administered. On the next day, the mice were put, as an acquisition trial, in an observation box in which two same objects were placed, and the number and duration of contacts to the objects were measured for 5 min under 300 lx. A compound was orally administered after the measurement. The day after the acquisition trial, the one object was replaced with a novel object, and the number and duration of contacts to each of the object were measured for 5 min. A metal cylinder and ceramic triangular pyramid were used in this test. A control group (test compound-untreated group) and a control group in wild-type mice were used for comparison. […]

T1 sequence (Q9Y6A2 whole entry): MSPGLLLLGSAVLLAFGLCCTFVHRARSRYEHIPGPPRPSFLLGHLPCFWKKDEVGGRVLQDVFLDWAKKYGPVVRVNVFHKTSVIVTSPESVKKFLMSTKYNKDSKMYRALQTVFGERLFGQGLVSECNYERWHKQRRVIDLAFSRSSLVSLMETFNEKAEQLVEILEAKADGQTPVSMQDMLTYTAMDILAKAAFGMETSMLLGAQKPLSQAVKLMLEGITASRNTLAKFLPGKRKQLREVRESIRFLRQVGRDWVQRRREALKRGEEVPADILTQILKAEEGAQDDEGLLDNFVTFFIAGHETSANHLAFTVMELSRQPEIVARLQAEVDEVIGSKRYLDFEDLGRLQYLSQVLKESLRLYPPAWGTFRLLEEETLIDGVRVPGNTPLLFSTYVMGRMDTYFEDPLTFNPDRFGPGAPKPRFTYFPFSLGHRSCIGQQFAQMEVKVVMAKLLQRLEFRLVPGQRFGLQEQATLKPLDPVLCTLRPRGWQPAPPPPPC

| Structure (SMILES) | inhibition at 1 µM (human CH24H) | exploration Rate (%) of Novel Object, duration of contacts [1] | exploration Rate (%) of Novel Object, number of contacts [1] |
| --- | --- | --- | --- |
| O=C(c1cnc2c(-c3cnco3)cc(C(F)(F)F)cn12)N1C2CCC1COC2 [Example 85, 3-oxa-8-azabicyclo[3.2.1]oct-8-yl(8-(1,3-oxazol-5-yl)-6-(trifluoromethyl)imidazo[1,2-a]pyridin-3-yl)methanone] | 88% | 61.8% | 54.4% |
| O=C(c1cnc2c(-c3cnco3)cc(C(F)(F)F)cn12)N1CC[C@H](OCC(F)F)C1 [Example 90, ((3S)-3-(2,2-difluoroethoxy)pyrrolidin-1-yl)(8-(1,3-oxazol-5-yl)-6-(trifluoromethyl)imidazo[1,2-a]pyridin-3-yl)methanone] | 91% |  |  |
| O=C(c1nnc2c(-c3cnco3)cc(C(F)(F)F)cn12)N1C[C@@H]2C[C@H]1CO2 [Example 58, (1S,4S)-2-oxa-5-azabicyclo[2.2.1]hept-5-yl(8-(1,3-oxazol-5-yl)-6-(trifluoromethyl)[1,2,4]triazolo[4,3-a]pyridin-3-yl)methanone] | 80% |  |  |
